From patent US7563771B2, “Synthetic single domain polypeptides mimicking apolipoprotein E” (UAB Research Foundation, priority 2002, dated 2009)
Each block holds one molecule with its values, some of them ahead of it. Peptide text beside a SMILES is read from it.

What was measured:
[1] = Solubility of peptide and peptide:DMPC complexes
[2] = Toxicity of intravenously administered peptide to mice; type: in vivo; settings: 100 μg/mouse; for toxicity to mice, in words: intravenously
[3] = system: HepG2 cells; test: Uptake of 125I-LDL and 125I-VLDL by HepG2 cells in presence of peptide; type: cell-based
Procedure: These experiments were performed to test the bioactivity of the R-18L peptide in cell culture. […] Specifically, ^125I-LDL and ^125I-VLDL and the R-18L peptide were incubated with HepG2 cells in vitro for 2 hours to determine the cellular uptake of the iodinated compounds. […] H/H represent uptake of the lipoproteins in cells treated with heparinase/heparitinase. […] In case of VLDL, the peptide-mediated uptake appeared to be predominantly via an HSPG pathway. […] Examples of atherogenic lipoproteins are VLDL and LDL.
This experiment was carried out to follow the events subsequent to the binding of atherogenic lipoproteins to cultured cells. HepG2 cells (obtained from American Type Culture Collection (ATCC), Manassas, Va.) are used for determining peptide-mediated enhanced uptake of LDL or VLDL. Cells are grown in DMEM in six-well plates and used at 75% to 90% confluence. The seeding density of the cells that is used is 1.5-3.0×10^5 cells/ml. Cells are treated with DMEM containing lipoprotein-deficient serum (LPDS) 24 h prior to use to upregulate […] with the indicated concentration (0 to 50 μg of ^125I-LDL) at 4° C. for 2 h in presence or absence of peptides. Nonspecific binding is assessed in the presence of 50-fold excess of unlabelled LDL with or without peptides. After washing with ice-cold PBS, (containing 2 mg/ml BSA) to remove excess labeled lipoproteins, cells are incubated with excess dextran sulfate (4 mg/ml Pharmacia, Mr of 500,000) or heparin (Sigma Chemical Co., St. Louis, Mo., 10 mg/ml) for 1 h to release specifically bound ^125I-LDL. The counts in the dextran sulfate wash reflect the amount of LDL bound to cells. Cells are then washed with PBS and then dissolved in 0.1 N NaOH and a 0.5 ml aliquot of the cells suspension is counted. The counts reflect the amount of LDL internalized. The amount of protein is estimated using the Lowry method. Degradation of LDL is assessed by precipitating ^125I-LDL using 17% […] acid and incubating at 4° C. for 30 min. The precipitate is removed by centrifugation. The supernatant is treated with 10 μl of 40% KI and 40 μl of 10% hydrogen peroxide. The free ^125I is extracted with 2 ml chloroform. The upper aqueous layer is then counted for radioactivity. These counts represent the amount of monoiodi-tyrosine produced by the degradation of apo B in lipoproteins. Cell surface HSPG is removed by treating cells with heparinase and heparitinase (Sigma Chemical Co., St. Louis, Mo.) at a concentration of 3 u/ml of medium for 2 h at 37° C. In all cell experiments an average value of triplicate experiments are considered. Counts are detected inside the cultured cells and it is shown that LDL and VLDL are bound, internalized and degraded in the cultured cells in the presence of the peptide of the invention.

[4] = system: plasma cholesterol; test: Plasma cholesterol after intravenous injection into fasted apo E null mice; type: in vivo
Procedure: The peptides were dissolved in PBS pH=5.0. Control mice (n=5) received PBS pH=5.0. Data shown represent mean±SEM.
Effects on cholesterol levels of peptide Ac-(R)14L-NH2 analog 2 (at 100 μg/mouse), administered intravenously into fasted apo E null mice as free peptide or as peptide:DMPC complexes at two pH levels. n=5 in all cases is shown in FIG. 11. Peptides were dissolved in PBS at the pH shown. Data shown represent mean±SEM.
Blood samples were taken immediately before injection and at 2 minutes and at 5 hours after injection and measured for cholesterol. A control of only PBS was also measured. Total cholesterol in the blood samples was measured, and is expressed in FIG. 4 as mean±SEM. […] However, the reduction in plasma cholesterol was in the lipoproteins, including HDL. […] Feces were collected for 24 hours following injection of 100 μg of Ac-(R)18L-NH2:DMPC complexes (n=2) or PBS (n=5). Fecal sterols were extracted, and total cholesterol was determined manually (Sigma Infinity). […] Total feces were collected from individually-caged mice for 24 hours following intravenous injection of Ac-(R)18L-NH2 into apo E null mice at a dose of 100 μg/mouse. Total 24-hour fecal cholesterol was then calculated. Feces from each mouse were weighed, lyophilized, and then re-weighed. 100 mg dried feces was then homogenized, and total lipids were extracted. The dried extract was resuspended in isopropanol, and cholesterol was measured manually. Data shown in FIG. 6 are mean±SEM for control and mean±range for peptide.
This experiment is carried out to show the usefulness of the peptides of the invention in vivo for lowering serum cholesterol. Peptide or peptide-lipid complexes were administered intravenously to mice. After some time period (as specifically shown in various figures), plasma samples were obtained by performing a retro-orbital bleed of the animals. The samples were analyzed by the column lipoprotein profile as previously described (Garber, D. et al. J. Lipid Res. 2000, 41:1020-1026). Briefly, 5 to 10 μl of the plasma was analyzed using a single superose (Pharmacia, Piscataway, N.J.) column. Immediately following the column run, cholesterol reagent is introduced through a mixing tee, and the eluent:reagent mixture enters a post column reaction coil. Cholesterol content of the reaction mixture is determined at 500 nm spectrophotometrically and the data points are collected into a computer. The resulting profiles are decomposed into component peaks and analyzed for relative area using PeakFit® computer software (SPSS Science, Chicago, Ill.). Absolute cholesterol value for total cholesterol is determined by comparisons with control samples of known values. The results would show a decrease in serum cholesterol in the subjects that received the polypeptides of the invention.

[5] = system: LDL from LDL-R null mice; test: Association of 125I-labelled peptide with plasma lipoproteins (CLiP profile, radioactivity of fractions); type: binding, LDL-R null mouse
Procedure: Peptide [^125I]Ac-(R)18L-NH2 was mixed with plasma from an LDL-R null mouse at a proportion of 100 μg peptide:1 mL plasma. The plasma lipoprotein profile was determined using the CLiP method (Garber and Anantharamaiah, J. Lipid. Res., 2000), and fractions were collected for measurement of radioactivity. Thus, peptide:lipid complexes are good candidates for administration that would result in enhanced uptake of atherogenic lipoproteins. The effect of the single domain peptide of the invention should last longer than any dual domain peptide since lipid-associated peptide is helical and the backbone is not accessible for proteolytic cleavage (degradation). Thus, several slow-release formulations of peptides with lipids are tested to determine the optimal formulation for delivery.

[6] = system: plasma cholesterol; test: Plasma cholesterol in dyslipidemic mouse models; type: in vivo; settings: several dyslipidemic mouse models, dose-dependent manner
Procedure: These studies were carried out to assess the bioactivity of the single domain R-18L peptides in vivo and compare its activity with the known activity of a dual domain Apo-E derived peptide. In this case, the bioactivity refers to the activity of lowering serum cholesterol in a subject (e.g., in a transgenic mouse). In this example, the 18L peptide analogs were administered to dyslipidemic mice.

[7] = system: erythrocytes; test: Hemolysis of erythrocytes (hemoglobin content of supernatant, absorbance at 540 nm); type: cell-based
Procedure: This example was performed to test the affect of amino acid residue changes on the lytic nature of peptides of the invention. Lysine residues, which resided on the polar face of the single domain peptide, were substituted with arginine and such altered peptides were tested for lytic ability. Similarly, in other peptides of the invention, lysine residues on the polar face of the single domain peptide of the invention were dimethylated. These altered peptides neutralized the hemolytic property of the 18 L peptide. A suspension of erythrocytes (10^6 cells/ml) in phosphate-buffered saline with and without peptide (10 ml of […] peptide solution) was incubated for 10 min at 37° C. Hemolysis was expressed as hemoglobin content (absorbance at 540 nm) of the supernatant after centrifugation at 16,000×g for 3 min. Hemoglobin content as measured in the presence of 0.1% Triton X-100 was taken as 100% hemolysis.

- solubility ([1]; pH=5.0): freely soluble
- solubility ([1]; pH=7.4): only partially soluble
- effect of DMPC on the suspension ([1]; pH=7.4, addition of DMPC at a 1:1 ratio (w/w)): completely clarified this suspension
Molecule: CC[C@H](C)[C@H](NC(=O)[C@H](Cc1ccccc1)NC(=O)[C@H](CCCNC(=N)N)NC(=O)[C@H](Cc1c[nH]c2ccccc12)NC(=O)[C@@H](NC(=O)[C@H](CO)NC(=O)CNC(=O)[C@H](Cc1ccc(O)cc1)NC(=O)[C@H](Cc1ccccc1)NC(=O)[C@H](CCCNC(=N)N)NC(=O)[C@H](CCCNC(=N)N)NC(C)=O)[C@@H](C)CC)C(=O)N[C@@H](CCCNC(=N)N)C(=O)N[C@@H](C)C(=O)N[C@@H](Cc1ccccc1)C(N)=O [Ac-(R)14L-NH2 analog 2] (Ac-RRFYGSIWRFIRAF-NH2)

Molecule: Ac-GIRRFLGSIWRFIRAFYG-NH2 [R-18L]
- toxicity to mice, in words [2]: completely normal
- uptake of LDL by HepG2 cells ([3]; 125I-LDL, 2 hours incubation): effective in enhancing the uptake
- uptake of VLDL by HepG2 cells ([3]; 125I-VLDL, 2 hours incubation): effective in enhancing the uptake
- enhanced uptake of VLDL in cells treated with heparinase/heparitinase (H/H) ([3]; HepG2 cells, H/H treated): completely abrogated
- uptake of LDL in cells treated with heparinase/heparitinase (H/H) ([3]; HepG2 cells, H/H treated): significant enhancement of uptake
- cholesterol reduction, dose dependency ([4]; 50 μg of peptide per mouse, i.v., 5 hours, limited to VLDL and IDL/LDL fractions (FIG. 5)): substantial reduction
- reducing plasma cholesterol ([4]; 50 μg/mouse, i.v., PBS pH=5.0, fasting apo E null mice (FIG. 10)): effective in reducing plasma cholesterol
- duration of plasma cholesterol reduction ([4]; 100 μg/mouse i.v. (FIG. 4)): maintained for at least five hours
- reduction of plasma cholesterol ([4]; 100 μg/mouse i.v., within two minutes, versus basal level (FIG. 4)): approximately 90%
- lowering plasma cholesterol in apo E(−) mice compared with dual domain peptide ([4]; apo E(−) mice): more effectively than the dual domain peptide
- counts per minute in VLDL peak ([5]; FIG. 7, elution volume c. 12 mL): ~50 CPM
- counts per minute in LDL peak ([5]; FIG. 7, elution volume c. 16 mL): ~150 CPM
- counts per minute in HDL peak ([5]; FIG. 7, elution volume c. 18 mL): ~350 CPM
- reducing plasma cholesterol [6]: effective in reducing plasma cholesterol

Molecule: GIKKFLGSIWKFIKAFVG [18L, reference compound]
- mice that died [2]: four out of six
- toxicity to mice, in words [2]: highly toxic
- hemolysis (lytic) [7]: 80%
- hemolysis / cell lysis, in words [7]: caused marked hemolysis

Molecule: GIRRFYGSIWRFIR (Ac-GIRRFYGSIWRFIR-NH2) [Ac-(R)14L-NH2 analog 1]
- reducing plasma cholesterol ([4]; free peptide, 100 μg/mouse, i.v., PBS pH=5, fasting apo E null mice (FIG. 10)): not effective
